Laboratory results published in the NIST ThermoML archive (doi:10.1016/j.jct.2015.09.022).
± gives the expanded uncertainty stated by the source.

Legend:
[1] = xn = mol fraction of the nth substance listed; conditions: 100.7 kPa, Liquid; for viscosity: Falling or rolling sphere viscometry; for speed of sound: Frequency=3 MHz, Sing-around technique in a fixed-path interferometer; for mass density: Vibrating tube method
[2] = 100.7 kPa, Liquid; for viscosity: Falling or rolling sphere viscometry; for speed of sound: Frequency=3 MHz, Sing-around technique in a fixed-path interferometer; for mass density: Vibrating tube method

SMILES	viscosity ([2]; 298.15 K) [mPa·s]	speed of sound ([2]; 298.15 K) [m/s]	mass density ([2]; 298.15 K) [kg/m3]	viscosity ([2]; 303.15 K) [mPa·s]	speed of sound ([2]; 303.15 K) [m/s]	mass density ([2]; 303.15 K) [kg/m3]	viscosity ([2]; 308.15 K) [mPa·s]	speed of sound ([2]; 308.15 K) [m/s]	mass density ([2]; 308.15 K) [kg/m3]	viscosity ([2]; 313.15 K) [mPa·s]	speed of sound ([2]; 313.15 K) [m/s]	mass density ([2]; 313.15 K) [kg/m3]	viscosity ([2]; 318.15 K) [mPa·s]	speed of sound ([2]; 318.15 K) [m/s]	mass density ([2]; 318.15 K) [kg/m3]	viscosity ([2]; 323.15 K) [mPa·s]	speed of sound ([2]; 323.15 K) [m/s]	mass density ([2]; 323.15 K) [kg/m3]	also measured
CCCC[n+]1ccn(C)c1.O=S(=O)([N-]S(=O)(=O)C(F)(F)F)C(F)(F)F + CCCC=O	–	–	–	–	–	–	–	–	–	–	–	–	–	–	–	–	–	–	viscosity ([1]; 298.15 K, x1 = 1): 50.04 ± 3 mPa·s; speed of sound ([1]; 298.15 K, x1 = 1): 1227.8 ± 1.5 m/s; mass density ([1]; 298.15 K, x1 = 1): 1436.82 ± 0.62 kg/m3; viscosity ([1]; 303.15 K, x1 = 1): 40.72 ± 2.5 mPa·s; speed of sound ([1]; 303.15 K, x1 = 1): 1217.5 ± 1.5 m/s; mass density ([1]; 303.15 K, x1 = 1): 1431.98 ± 0.61 kg/m3; viscosity ([1]; 308.15 K, x1 = 1): 33.73 ± 2.1 mPa·s; speed of sound ([1]; 308.15 K, x1 = 1): 1205.2 ± 1.5 m/s; mass density ([1]; 308.15 K, x1 = 1): 1427.16 ± 0.61 kg/m3; viscosity ([1]; 313.15 K, x1 = 1): 28.28 ± 1.7 mPa·s; speed of sound ([1]; 313.15 K, x1 = 1): 1194.4 ± 1.5 m/s; mass density ([1]; 313.15 K, x1 = 1): 1422.37 ± 0.6 kg/m3; viscosity ([1]; 318.15 K, x1 = 1): 24.01 ± 1.5 mPa·s; speed of sound ([1]; 318.15 K, x1 = 1): 1184.5 ± 1.5 m/s; mass density ([1]; 318.15 K, x1 = 1): 1417.6 ± 0.6 kg/m3; viscosity ([1]; 323.15 K, x1 = 1): 20.32 ± 1.2 mPa·s; speed of sound ([1]; 323.15 K, x1 = 1): 1171.3 ± 1.5 m/s; mass density ([1]; 323.15 K, x1 = 1): 1412.86 ± 0.59 kg/m3
CCCC=O [butanal]	0.43 ± 0.03	1193.8 ± 1.4	796.99 ± 0.21	0.4 ± 0.02	1172.7 ± 1.4	791.8 ± 0.21	0.39 ± 0.02	1151.6 ± 1.4	786.41 ± 0.21	0.36 ± 0.02	1130.6 ± 1.4	781.37 ± 0.21	0.35 ± 0.02	1109.6 ± 1.4	776.39 ± 0.21	0.32 ± 0.02	1088.8 ± 1.4	771.3 ± 0.22	–
CCCCOC(C)=O [butyl ethanoate]	0.67 ± 0.07	–	–	0.64 ± 0.06	–	–	0.58 ± 0.06	–	–	0.57 ± 0.06	–	–	0.53 ± 0.05	–	–	0.5 ± 0.05	–	–	–
CCCC[n+]1ccn(C)c1.O=S(=O)([N-]S(=O)(=O)C(F)(F)F)C(F)(F)F + CCCCN	–	–	–	–	–	–	–	–	–	–	–	–	–	–	–	–	–	–	viscosity ([1]; 298.15 K, x1 = 1): 50.04 ± 3 mPa·s; speed of sound ([1]; 298.15 K, x1 = 1): 1227.8 ± 1.5 m/s; mass density ([1]; 298.15 K, x1 = 1): 1436.82 ± 0.62 kg/m3; viscosity ([1]; 303.15 K, x1 = 1): 40.72 ± 2.5 mPa·s; speed of sound ([1]; 303.15 K, x1 = 1): 1217.5 ± 1.5 m/s; mass density ([1]; 303.15 K, x1 = 1): 1431.98 ± 0.61 kg/m3; viscosity ([1]; 308.15 K, x1 = 1): 33.73 ± 2.1 mPa·s; speed of sound ([1]; 308.15 K, x1 = 1): 1205.2 ± 1.5 m/s; mass density ([1]; 308.15 K, x1 = 1): 1427.16 ± 0.61 kg/m3; viscosity ([1]; 313.15 K, x1 = 1): 28.28 ± 1.7 mPa·s; speed of sound ([1]; 313.15 K, x1 = 1): 1194.4 ± 1.5 m/s; mass density ([1]; 313.15 K, x1 = 1): 1422.37 ± 0.6 kg/m3; viscosity ([1]; 318.15 K, x1 = 1): 24.01 ± 1.5 mPa·s; speed of sound ([1]; 318.15 K, x1 = 1): 1184.5 ± 1.5 m/s; mass density ([1]; 318.15 K, x1 = 1): 1417.6 ± 0.6 kg/m3; viscosity ([1]; 323.15 K, x1 = 1): 20.32 ± 1.2 mPa·s; speed of sound ([1]; 323.15 K, x1 = 1): 1171.3 ± 1.5 m/s; mass density ([1]; 323.15 K, x1 = 1): 1412.86 ± 0.59 kg/m3
CCCCOC(C)=O [butyl ethanoate] + CCCC[n+]1ccn(C)c1.O=S(=O)([N-]S(=O)(=O)C(F)(F)F)C(F)(F)F	–	–	–	–	–	–	–	–	–	–	–	–	–	–	–	–	–	–	viscosity ([1]; 298.15 K, x2 = 0): 0.67 ± 0.07 mPa·s; speed of sound ([1]; 298.15 K, x2 = 0): 1190.5 ± 1.4 m/s; mass density ([1]; 298.15 K, x2 = 0): 876 ± 0.2 kg/m3; viscosity ([1]; 303.15 K, x2 = 0): 0.64 ± 0.06 mPa·s; speed of sound ([1]; 303.15 K, x2 = 0): 1169.8 ± 1.4 m/s; mass density ([1]; 303.15 K, x2 = 0): 870.86 ± 0.2 kg/m3; viscosity ([1]; 308.15 K, x2 = 0): 0.58 ± 0.06 mPa·s; speed of sound ([1]; 308.15 K, x2 = 0): 1149.2 ± 1.4 m/s; mass density ([1]; 308.15 K, x2 = 0): 865.69 ± 0.2 kg/m3; viscosity ([1]; 313.15 K, x2 = 0): 0.57 ± 0.06 mPa·s; speed of sound ([1]; 313.15 K, x2 = 0): 1128.8 ± 1.4 m/s; mass density ([1]; 313.15 K, x2 = 0): 860.49 ± 0.2 kg/m3; viscosity ([1]; 318.15 K, x2 = 0): 0.53 ± 0.05 mPa·s; speed of sound ([1]; 318.15 K, x2 = 0): 1108.5 ± 1.4 m/s; mass density ([1]; 318.15 K, x2 = 0): 855.28 ± 0.2 kg/m3; viscosity ([1]; 323.15 K, x2 = 0): 0.5 ± 0.05 mPa·s; speed of sound ([1]; 323.15 K, x2 = 0): 1088.3 ± 1.4 m/s; mass density ([1]; 323.15 K, x2 = 0): 850.03 ± 0.21 kg/m3
CCCCN [1-butanamine]	0.47 ± 0.03	1246.5 ± 1.3	733.33 ± 0.2	0.44 ± 0.03	1223.9 ± 1.3	728.5 ± 0.2	0.41 ± 0.03	1201.3 ± 1.3	723.67 ± 0.2	0.39 ± 0.02	1178.7 ± 1.3	718.66 ± 0.2	0.37 ± 0.02	1156.2 ± 1.3	714.1 ± 0.2	0.35 ± 0.02	1133.5 ± 1.3	709.21 ± 0.2	–
CCCC[n+]1ccn(C)c1.O=S(=O)([N-]S(=O)(=O)C(F)(F)F)C(F)(F)F	50.04 ± 5	1227.8 ± 1.5	1436.82 ± 0.62	40.72 ± 4.1	1217.5 ± 1.5	1431.98 ± 0.61	33.73 ± 3.4	1205.2 ± 1.5	1427.16 ± 0.61	28.28 ± 2.8	1194.4 ± 1.5	1422.37 ± 0.6	24.01 ± 2.4	1184.5 ± 1.5	1417.6 ± 0.6	20.32 ± 2	1171.3 ± 1.5	1412.86 ± 0.59	–
